Consider four compounds from patent publication US8436180B2, “Substituted-4-aryl-1,4-dihydro-1,6-naphthyridinamides and use thereof” (Bayer Intellectual Property GmbH, priority 2007, dated 2013).

The target in assay [1] is T1, human mineralocorticoid receptor (MR) (Homo sapiens, UniProt P08235).
T1 construct: expressed in transfected cells; host or cells: CHO K1 (Chinese hamster ovary), stably transfected
T1 sequence (P08235 734-984 limits assumed): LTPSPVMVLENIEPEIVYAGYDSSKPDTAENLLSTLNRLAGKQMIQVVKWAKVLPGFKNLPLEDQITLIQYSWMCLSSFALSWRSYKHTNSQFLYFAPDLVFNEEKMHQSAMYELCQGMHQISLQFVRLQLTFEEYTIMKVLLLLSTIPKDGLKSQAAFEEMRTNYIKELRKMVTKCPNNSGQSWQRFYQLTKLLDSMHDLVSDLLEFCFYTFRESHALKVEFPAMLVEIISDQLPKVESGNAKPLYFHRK
The experiment in a line: Cellular in vitro assay to determine the inhibitory MR activity (GAL4-MR chimera luciferase reporter in CHO K1 cells). To be noted: antagonism of aldosterone-stimulated luciferase activity. It counts as cell-based. The text has this: 1. Cellular In Vitro Assay to Determine the Inhibitory MR Activity and MR Selectivity Compared with Other Steroid Hormone Receptors
Antagonists of the human mineralocorticoid receptor (MR) are identified, and the activity of the compounds described herein is quantified with the aid of a recombinant cell line. The cell is originally derived from a hamster ovary epithelial cell (Chinese Hamster Ovary, CHO K1, ATCC: American Type Culture Collection, VA 20108, USA).
An established chimera system in which the ligand-binding domains of human steroid hormone receptors are fused to the DNA-binding domain of the yeast transcription factor GAL4 is used in this CHO K1 cell line. The GAL4-steroid hormone receptor chimeras produced in this way are cotransfected and stably expressed with a reporter construct in the CHO cells.
To generate the GAL4-steroid hormone receptor chimeras, the GAL4 DNA binding domain (amino acids 1-147) from the vector pFC2-dbd (from Stratagene) is cloned with the PCR-amplified ligand-binding domains of the mineralocorticoid receptor (MR, amino acids 734-985), of the glucocorticoid receptor (GR, amino acids 443-777), of the progesterone receptor (PR, amino acids 680-933) and of the androgen receptor (AR, amino acids 667-919) into the vector pIRES2 (from Clontech). […]
The MR, GR, PR and AR cells are plated out in medium (Optimem, 2.5% FCS, 2 mM glutamine, 10 mM HEPES) in 96- (or 384- or 1536-) well microtiter plates on the day before the assay and are kept in a cell incubator (96% humidity, 5% v/v CO2, 37° C.). […] After a further incubation time of 5 to 6 hours, the luciferase activity is measured with the aid of a video camera. The measured relative light units as a function of the substance concentration result in a sigmoidal stimulation curve. The IC50 values are calculated with the aid of the GraphPad PRISM computer program (Version 3.02).

Assay [2] deals with aldosterone-induced sodium retention. Kind of assay: In vivo assay for detecting anti-mineralocorticoid activity on anesthetized dogs. Details: species or system dog. To be noted: anesthetized dogs under continuous aldosterone infusion (0.6 μg/kg/h); positive control.
Description: In Vivo Assay for Detecting Anti-Mineralocorticoid Activity on Anesthetized Dogs
Male or female mongrel dogs (mongrels, Marshall BioResources, USA) with a weight between 20 and 30 kilograms are anesthetized with pentobarbital (30 mg/kg intravenously; Narcoren®, Merial, Germany). Alcuronium chloride (3 mg/animal intravenously; Alloferin®, ICN Pharmaceuticals, Germany) is used in addition as muscle relaxant. The dogs are intubated and ventilated with an oxygen/ambient air mixture (40/60 Vol.-%) (about 5-6 liters/min). The ventilation takes place with a ventilator supplied by Draeger (Sulla 808) and is monitored with a CO2 analyzer (from Engstrom). […]
The primary aim of the test is to investigate the effect of test compounds with antimineralocorticoid receptor activity on the aldosterone-induced sodium retention. […] A continuous infusion of aldosterone (0.6 μg/kg/h) leads after 3 hours to a decrease in the sodium/potassium ratio in the urine (sodium and potassium are determined by flame photometry). […]
The primary signals are amplified if necessary (Gould amplifier, Gould Instrument Systems, Valley View, USA or Edwards Vigilance-Monitor, Edwards, Irvine, USA) and subsequently fed into the Ponemah system (DataSciences Inc., Minneapolis, USA) for analysis. The signals are recorded continuously throughout the test period, further processed digitally by this software and averaged over 30 seconds.

As a reminder, the IC50 is the concentration at which inhibition is half-maximal. The low end stands for greater potency in that assay, the high end for weaker potency in that assay. Compound `CCOc1nccc2c1C(c1ccc(C#N)cc1OC)C(C(N)=O)=C(C)N2` (stereo not shown) [Example 1, 4-(4-Cyano-2-methoxyphenyl)-5-ethoxy-2-methyl-1,4-dihydro-1,6-naphthyridine-3-carboxamide] returned an IC50 in assay [1] of 35 nM. This counts as double-digit nanomolar.
Still for that read-out and setting: the figure for `CCOc1ncc(C)c2c1C(c1ccc(C#N)cc1OC)C(C(N)=O)=C(C)N2` (racemic) [Example 4, 4-(4-Cyano-2-methoxyphenyl)-5-ethoxy-2,8-dimethyl-1,4-dihydro-1,6-naphthyridine-3-carboxamide] is 23 nM.
As to `CC(=O)S[C@@H]1CC2=CC(=O)CC[C@]2(C)[C@H]2CC[C@@]3(C)[C@@H](CC[C@@]34CCC(=O)O4)[C@H]12` [Spironolactone], the “sodium/potassium ratio in the urine” value in assay [2] is listed as “increases the sodium/potassium ratio in the urine dose-dependently”.
`CCOc1ncc(C)c2c1[C@H](c1ccc(C#N)cc1OC)C(C(N)=O)=C(C)N2` [5 [(−)-enantiomer]] showed a concentration for half-maximal inhibition (IC50) in assay [1] of 16 nM.
